Common to all, as to assay: inhibition of tumour cell growth, NCI panel, 48 h
Assay [1] relates to SNB-75 CNS.
The subject of assay [2] is MALME-3M melanoma.
Assay [3] has as its system SF-295 CNS.
Assay [4] has as its system RXF 393 renal.
The test system of assay [5] is KM12 colon.
For assay [6], the system named is EKVX NSCLC.
Assay [7] concerns IGROV1 ovarian.
In assay [8] the test system is HCT-116 colon.
In assay [9] the test system is HL-60(TB) leukemia.
The subject of assay [10] is SK-OV-3 ovarian.

We go through nine compounds from PubChem BioAssay (NCI).

Several values for one entry are separate records, joined by “and”; a condition that tells them apart may be missing. Identical values can stand only once.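 Grown in 96-well plates, cells were treated for 48 hours with each compound at five concentrations. Insufficient inhibition: endpoint recorded as highest concentration tested. The concentration for 50% growth inhibition is given as GI50. TGI marks complete inhibition of growth.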 Where only a bound is given, the exact number is not on record here.

`CC(=C(c1ccc(OCCN2CCCCC2)cc1)c1ccc(OCCN2CCCCC2)cc1)c1ccc(Cl)cc1`: the GI50 was 0.325 µM in [1]; 0.419 µM in [2]; 0.449 µM in assay [3]; 0.375 µM in [4]; 0.454 µM in assay [5]; 0.433 µM in assay [6]. The GI50 in [7] was 0.432 µM; in assay [8], 0.39 µM; in assay [9], 0.452 µM; in assay [10] it was 0.428 µM. For the same compound, the TGI in [1] amounted to 0.673 µM; in assay [2] it was 0.798 µM; in assay [3], 0.868 µM; in [4] it was 0.743 µM; in assay [5] it was 0.887 µM; in assay [6] it was 0.857 µM. The TGI worked out at 0.82 µM in [7], 0.743 µM in [8], 0.957 µM in [9] and 0.806 µM in assay [10].
For the compound `CC(=O)OC1(C)N=NC2(CCCCC2)O1` (stereo not given), the TGI in assay [1], in assay [2], in assay [3], in assay [4], in assay [5] and in [6] was greater than 100 µM in each case. For the same compound, the TGI in assay [7], in assay [8], in assay [9] and in assay [10] was greater than 100 µM each time.
Turning to `c1ccc(-c2n(Cc3ccc4ccccc4n3)cc[n+]2Cc2ccc3ccccc3c2)cc1`, the GI50 in [1] was 0.624 µM; in [2], 0.81 µM; in [3], 1.73 µM; in assay [4], 1.34 µM; in [5], 0.823 µM; in assay [6] it was 2.33 µM. For the same compound, the GI50 was 0.783 µM in assay [7], 1.24 µM in assay [8], 0.256 µM in assay [9] and 1.8 µM in [10]. In addition, the TGI in assay [1] came to 3.15 µM; in assay [2], 2.78 µM; in assay [3], 4.73 µM; in assay [4], 3.38 µM; in assay [5], 2.42 µM; in assay [6], 12.8 µM. The TGI is 2.43 µM in [7], 3.37 µM in [8], 0.88 µM in assay [9] and 4.69 µM in [10].
On to `O=C(Nc1nn2c(-c3cc(C(F)(F)F)cc(C(F)(F)F)c3)nnc2s1)C1CCCC1`, for which the GI50 in [1] was 1.43 µM; in assay [2], 0.27 µM; in assay [3] it was 0.286 µM; in assay [4] it was 1.62 µM; in [5] it was 0.575 µM; in assay [6], 0.366 µM. Also, the GI50 in [7] is 0.553 µM; in assay [8], 0.518 µM; in assay [9] it was 0.407 µM; in assay [10], 1.76 µM. The TGI was greater than 28.2 µM in assay [1]; 2.93 µM in assay [2]; 2.01 µM in [3]; greater than 33.9 µM in assay [4]; greater than 46.2 µM in [5]; greater than 25.2 µM in assay [6]. Further, the TGI in [7] is greater than 100 µM; in assay [8] it was greater than 100 µM; in assay [9] it was 1.75 µM; in assay [10], 45.8 µM.
For the compound `C[C@@]1(O)CC[C@]2(C)C3CCCC3[C@H]12` (stereo not given in full), the TGI in [1], in assay [2], in assay [3], in [4], in [5] and in assay [6] was greater than 100 µM each time. The TGI in assay [7], in assay [8], in assay [9] and in [10] was greater than 100 µM each time.
In the case of `C=C1C(=O)O[C@H]2[C@H]1CC/C(CNC(=O)c1cc3ccccc3[nH]1)=C\CC[C@@]1(C)O[C@@H]21`, the GI50 in assay [1] is 6.98 µM; in assay [2] it was 1.78 µM; in assay [3], 6.45 µM; in assay [4] it was 1.01 µM; in [5], 2.08 µM; in [6], 2.11 µM. Also, the GI50 in [7] is 1.32 µM; in [8], 1 µM; in [9], 2.01 µM; in assay [10] it was 11.6 µM. Also, the TGI is 21 µM in [1]; 3.6 µM in assay [2]; 19.5 µM in [3]; 2.52 µM in assay [4]; 5 µM in assay [5]; 8.04 µM in assay [6]. In addition, the TGI in assay [7] is 5.4 µM; in assay [8], 2.21 µM; in assay [9] it was 5.8 µM; in [10], 23.8 µM.
As for `NC(N)=NS(=O)(=O)c1ccc(N=Nc2c(O)c(C(=O)O)cc3ccccc23)cc1`, the TGI in assay [1], in assay [2], in assay [3], in [4], in [5] and in assay [6] was greater than 100 µM each time. Further, the TGI in assay [7], in [8], in assay [9] and in assay [10] was greater than 100 µM each time.
`O=C1OCC2=C1C(c1cccc(Br)c1)c1cc3c(cc1N2CCO)OCCO3` (stereo not given): the GI50 is 0.0397 µM in [1]; 0.0288 µM in [2]; 0.0184 µM in [3]; 0.012 µM in assay [4]; 0.0442 µM in assay [5]; 1.3 µM in [6]. The GI50 in assay [7] was 0.117 µM; in assay [8] it was 0.0595 µM; in assay [9], 0.0452 µM; in [10], 0.067 µM. Also, the TGI in assay [1] is greater than 35.4 µM; in [2], 20.8 µM; in [3] it was 0.417 µM; in assay [4], 0.0361 µM; in assay [5], 2.31 µM; in assay [6] it was 48.7 µM. Besides, the TGI is greater than 43.8 µM in [7], 2.07 µM in [8], 0.362 µM in assay [9] and 4.04 µM in assay [10].
As for `Cc1[cH-]c(=O)n(-c2ccccc2)n1.[Au+].[Au].c1ccc([PH+](c2ccccc2)c2ccccc2)cc1.c1ccc([PH+](c2ccccc2)c2ccccc2)cc1`, the GI50 is 14.7 µM in [1]; 9.61 µM in assay [2]; 15.1 µM in assay [3]; 0.756 µM and 6.89 µM in [4]; 36.7 µM in assay [5]; 23 µM in assay [6]. For the same compound, the GI50 was 13.6 µM in assay [7], 20.2 µM in assay [8], 15.2 µM in assay [9] and 40.4 µM in [10]. Further, the TGI in assay [1] is 39.3 µM; in assay [2], 31.1 µM; in [3], 35.2 µM; in assay [4] it was 3.32 µM and 28.5 µM; in assay [5], greater than 100 µM; in assay [6] it was 79.7 µM. For the same compound, the TGI is 31.7 µM in assay [7], 38.9 µM in [8], 41.1 µM in assay [9] and greater than 100 µM in assay [10].
